The record followed here is ChEMBL document CHEMBL1201862, “PubChem BioAssay data set” (2004).

Among the test systems are 786-0; EKVX; HL-60; UO-31; KM12; UACC-257; DU-145; MOLT-4; NCI-H460; OVCAR-3; HCT-15; M14; NCI-H522; HT-29; HOP-92; U-251; BT-549; LOX IMVI; SF-295; Hs-578T.
Holding throughout (assay): NCI anticancer screen, dose series, 48 h

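These data come from cells grown in 96-well plates and exposed to compound for 48 hours at five concentrations. Abbreviation: GI50, concentration required for 50% inhibition of growth.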 The source made the active and inactive calls. No stated cut-off is given here; in the data, active = GI50 up to about 1.1 µM and inactive = higher. Numbered stars: 1 amine (or outer) side, 2 acyl side, 3 side chain; on linkers, the order of the positions; unused ones are H or OH. Bridge positions count the residues as written; N and C are the ends. Square brackets hold non-standard residues; d marks the D form. Peptide text beside a SMILES is read from it. * marks the point of attachment. ξ: configuration not given here. X33 = O=C(C(CCCCNO[*:3])N[*:1])[*:2]; Fmoc = O=C(OCC1c2ccccc2-c2ccccc21)*; ξW = NC(Cc1c[nH]c2ccccc12)C(=O)O; ξP = O=C(O)C1CCCN1

Turning to `O=[N+]([O-])C(=C(Sc1ccccc1)Sc1ccccc1)C(Cl)=C(Cl)Cl`, the GI50 with 786-0 was 0.0703 µM (active); in the assay with EKVX, 2.05 µM (inactive); with HL-60, 0.141 µM (active); with UO-31, 0.171 µM (active); in the assay on KM12, 2.44 µM (inactive); with UACC-257 it was 0.323 µM (active). The GI50 with DU-145 is 1.11 µM (active); in the assay on MOLT-4, 0.051 µM (active); in the assay with NCI-H460, 5.74 µM (inactive); in the assay with OVCAR-3, 0.373 µM (active); with HCT-15 it was 0.319 µM; with M14, 0.421 µM (active). Moreover, the GI50 in the assay with NCI-H522 is 0.0776 µM (active); with HT-29, 0.123 µM (active); with HOP-92, 1.29 µM (inactive); in the assay with U-251, 1.53 µM (inactive); with BT-549, 1.18 µM (inactive); in the assay on LOX IMVI, 0.177 µM (active). Further, the GI50 in the assay on SF-295 is 11.9 µM (inactive); with Hs-578T, 3.32 µM (inactive).

`NC(=O)CNC(=O)C1CCCN1C(=O)C1CCCCNOC(=O)CC[C@@H](NC(=O)OCC2c3ccccc3-c3ccccc32)C(=O)NC(Cc2c[nH]c3ccccc23)C(=O)N1` (stereo not given in full) (Fmoc-[dE][ξW][X33][ξP]G-NH2; ester 1-3): the GI50 was > 100 µM (inactive) in the assay on 786-0; > 100 µM (inactive) with EKVX; > 100 µM (inactive) in the assay on HL-60; 20.7 µM (inactive) in the assay with UO-31; > 100 µM (inactive) in the assay on KM12; > 100 µM (inactive) with UACC-257. In addition, the GI50 in the assay on DU-145 is > 100 µM (inactive); with MOLT-4, > 100 µM (inactive); in the assay on NCI-H460 it was > 100 µM (inactive); in the assay with OVCAR-3, > 100 µM (inactive); in the assay with HCT-15 it was > 100 µM; with M14, 64.4 µM (inactive). The GI50 with NCI-H522, in the assay with HT-29, in the assay on HOP-92, in the assay with U-251, with BT-549 and in the assay on LOX IMVI was > 100 µM (inactive) throughout. Moreover, the GI50 in the assay on SF-295 and with Hs-578T was > 100 µM (inactive) in each case.
